Measured values reported in patent publication US10828317B2, “Method of treating bacterial infections” (priority 2016, dated 2020).
Like-named read-outs stand apart in the source and are kept apart here.

Key:
E. coli B EN0458 = experiment: MIC; assay type: cell-based, Escherichia coli B; details: Escherichia coli, read-out: MIC
P. aeruginosa EN0422 = experiment: MIC; assay type: cell-based, Pseudomonas aeruginosa; details: Pseudomonas aeruginosa, read-out: MIC
S. aureus EN008 = experiment: MIC, Gram-positive control; assay type: cell-based, Staphylococcus aureus; details: Staphylococcus aureus, read-out: MIC
P. mirabilis EN0457 = experiment: MIC; assay type: cell-based, Proteus mirabilis; details: Proteus mirabilis, read-out: MIC
K. pneumoniae EN0245 = experiment: MIC, colistinR; assay type: cell-based; details: Klebsiella pneumoniae, read-out: MIC
S. flexneri APV00907 = experiment: MIC and antibiogram; assay type: cell-based; details: Shigella flexneri, Table 22A
From the text: Inhibition of Heliobacter is important in view of increasing resistance and its association to gastric cancer.

Citrobacter sp. EN0465 = experiment: MIC; assay type: cell-based; details: Citrobacter, read-out: MIC
A. baumannii EN007 = experiment: MIC, WT (EN007 = EN0007); assay type: cell-based, Acinetobacter baumannii
E. coli EN0134 = experiment: MIC, AmpC (CMY-4); assay type: cell-based; details: Escherichia coli, read-out: MIC
E. aerogenes EN0461 = experiment: MIC; assay type: cell-based, Enterobacter aerogenes; details: Klebsiella aerogenes, read-out: MIC
S. epidermidis EN0456 = experiment: MIC; assay type: cell-based, Staphylococcus epidermidis; details: Staphylococcus epidermidis, read-out: MIC
K. pneumoniae EN0249 = experiment: MIC, colistinR; assay type: cell-based; details: Klebsiella pneumoniae, read-out: MIC
P. aeruginosa EN0460 = experiment: MIC; assay type: cell-based, Pseudomonas aeruginosa; details: Pseudomonas aeruginosa, read-out: MIC
E. coli EN012 = experiment: MIC, WT; assay type: cell-based, Escherichia coli; details: Escherichia coli, EN012, combination FdUrd+trimethoprim+uridine, Table 8; read-out: MIC
E. coli EN003 = experiment: microbe, parasite or virus in culture; assay type: cell-based, Escherichia coli; details: Escherichia coli, EN003, combination didanosine+trimethoprim+uridine, Table 10
K. pneumoniae EN0144 = experiment: MIC, MBL (VIM-1); assay type: cell-based; details: Klebsiella pneumoniae, read-out: MIC
K. pneumoniae EN0145 = experiment: MIC, KPC-2; assay type: cell-based; details: Klebsiella pneumoniae, read-out: MIC
A. baumannii EN016 = experiment: MIC, WT; assay type: cell-based, Acinetobacter baumannii; details: Acinetobacter baumannii, Table 16, read-out: MIC

## COc1cc(Cc2cnc(N)nc2N)cc(OC)c1OC [Trimethoprim, trimethoprim]
E. coli B EN0458; BEN0458, combination FdUrd+trimethoprim+uridine, Table 8
  MIC: 0.064 µg/mL
E. coli B EN0458; BEN0458, combination didanosine+trimethoprim+uridine, Table 10
  MIC: 0.064 µg/mL
P. aeruginosa EN0422; EN0422, Combination 1 AZT+trimethoprim+uridine, Table 16
  MIC: > 8 µg/mL
P. aeruginosa EN0422; EN0422, Combination 2 AZT+trimethoprim+uridine+thymidine, Table 16
  MIC: > 4 µg/mL
P. aeruginosa EN0422; EN0422, combination AZT+trimethoprim+uridine, Table 6
  MIC: > 4 µg/mL
P. aeruginosa EN0422; EN0422, combination FdUrd+trimethoprim+uridine, Table 8
  MIC: > 8 µg/mL
P. aeruginosa EN0422; EN0422, combination didanosine+trimethoprim+uridine, Table 10
  MIC: > 8 µg/mL
S. aureus EN008; EN008, Combination 1 AZT+trimethoprim+uridine, Table 16
  MIC: 1 µg/mL
S. aureus EN008; EN008, Combination 2 AZT+trimethoprim+uridine+thymidine, Table 16
  MIC: > 4 µg/mL
S. aureus EN008; EN008, combination AZT+trimethoprim+uridine, Table 6
  MIC: 1 µg/mL
S. aureus EN008; EN008, combination FdUrd+trimethoprim+uridine, Table 8
  MIC: < 0.016 µg/mL
S. aureus EN008; EN008, combination didanosine+trimethoprim+uridine, Table 10
  MIC: 1 µg/mL
P. mirabilis EN0457; EN0457, Combination 1 AZT+trimethoprim+uridine, Table 16
  MIC: 2 µg/mL
P. mirabilis EN0457; EN0457, Combination 2 AZT+trimethoprim+uridine+thymidine, Table 16
  MIC: > 4 µg/mL
P. mirabilis EN0457; EN0457, combination AZT+trimethoprim+uridine, Table 6
  MIC: 2 µg/mL
P. mirabilis EN0457; EN0457, combination FdUrd+trimethoprim+uridine, Table 8
  MIC: 2 µg/mL
P. mirabilis EN0457; EN0457, combination didanosine+trimethoprim+uridine, Table 10
  MIC: 4 µg/mL
K. pneumoniae EN0245; EN0245, combination AZT+trimethoprim+uridine, Table 17B
  MIC: 1 µg/mL
K. pneumoniae EN0245; EN0245, combination FdUrd+trimethoprim+uridine, Table 19
  MIC: > 8 µg/mL
K. pneumoniae EN0245; EN0245, combination didanosine+trimethoprim+uridine, Table 20
  MIC: > 8 µg/mL
S. flexneri APV00907; APV00907, combination AZT+trimethoprim+uridine
  MIC: 2 µg/mL
S. flexneri APV00907; APV00907, combination FdUrd+trimethoprim+uridine
  MIC: > 8 µg/mL
Citrobacter sp. EN0465; SP.EN0465, Combination 1 AZT+trimethoprim+uridine, Table 16
  MIC: > 4 µg/mL
Citrobacter sp. EN0465; SP.EN0465, Combination 2 AZT+trimethoprim+uridine+thymidine, Table 16
  MIC: > 4 µg/mL
Citrobacter sp. EN0465; SP.EN0465, combination AZT+trimethoprim+uridine, Table 6
  MIC: > 4 µg/mL
Citrobacter sp. EN0465; SP.EN0465, combination FdUrd+trimethoprim+uridine, Table 8
  MIC: > 8 µg/mL
Citrobacter sp. EN0465; SP.EN0465, combination didanosine+trimethoprim+uridine, Table 10
  MIC: > 8 µg/mL
A. baumannii EN007; Acinetobacter baumannii, EN007, Combination 1 AZT+trimethoprim+uridine, Table 16, read-out: MIC
  MIC: > 4 µg/mL
A. baumannii EN007; Acinetobacter baumannii, EN007, Combination 2 AZT+trimethoprim+uridine+thymidine, Table 16, read-out: MIC
  MIC: > 4 µg/mL
A. baumannii EN007; Acinetobacter baumannii, EN007, combination AZT+trimethoprim+uridine, Table 6, read-out: MIC
  MIC: > 4 µg/mL
A. baumannii EN007; Acinetobacter baumannii, EN007, combination FdUrd+trimethoprim+uridine, Table 8, read-out: MIC
  MIC: > 8 µg/mL
A. baumannii EN007; Acinetobacter baumannii, EN007, combination didanosine+trimethoprim+uridine, Table 10, read-out: MIC
  MIC: > 8 µg/mL
A. baumannii EN007; combination AZT+trimethoprim+uridine, Table 17B
  MIC: >4 µg/mL
A. baumannii EN007; combination FdUrd+trimethoprim+uridine, Table 19
  MIC: >8 µg/mL
A. baumannii EN007; combination didanosine+trimethoprim+uridine, Table 20
  MIC: >8 µg/mL
E. coli EN0134; EN0134, combination FdUrd+trimethoprim+uridine, Table 19
  MIC: > 8 µg/mL
E. coli EN0134; EN0134, combination didanosine+trimethoprim+uridine, Table 20
  MIC: > 8 µg/mL
E. aerogenes EN0461; EN0461, Combination 1 AZT+trimethoprim+uridine, Table 16
  MIC: 0.25 µg/mL
E. aerogenes EN0461; EN0461, Combination 2 AZT+trimethoprim+uridine+thymidine, Table 16
  MIC: 2 µg/mL
E. aerogenes EN0461; EN0461, combination AZT+trimethoprim+uridine, Table 6
  MIC: 0.25 µg/mL
E. aerogenes EN0461; EN0461, combination FdUrd+trimethoprim+uridine, Table 8
  MIC: 2 µg/mL
E. aerogenes EN0461; EN0461, combination didanosine+trimethoprim+uridine, Table 10
  MIC: 1 µg/mL
S. epidermidis EN0456; EN0456, Combination 1 AZT+trimethoprim+uridine, Table 16
  MIC: 0.064 µg/mL
S. epidermidis EN0456; EN0456, Combination 2 AZT+trimethoprim+uridine+thymidine, Table 16
  MIC: 2 µg/mL
S. epidermidis EN0456; EN0456, combination AZT+trimethoprim+uridine, Table 6
  MIC: 0.06 µg/mL
S. epidermidis EN0456; EN0456, combination FdUrd+trimethoprim+uridine, Table 8
  MIC: < 0.016 µg/mL
K. pneumoniae EN0249; EN0249, combination AZT+trimethoprim+uridine, Table 17B
  MIC: 1 µg/mL
K. pneumoniae EN0249; EN0249, combination FdUrd+trimethoprim+uridine, Table 19
  MIC: > 8 µg/mL
K. pneumoniae EN0249; EN0249, combination didanosine+trimethoprim+uridine, Table 20
  MIC: > 8 µg/mL
P. aeruginosa EN0460; EN0460, Combination 1 AZT+trimethoprim+uridine, Table 16
  MIC: > 4 µg/mL
P. aeruginosa EN0460; EN0460, Combination 2 AZT+trimethoprim+uridine+thymidine, Table 16
  MIC: > 4 µg/mL
P. aeruginosa EN0460; EN0460, combination AZT+trimethoprim+uridine, Table 6
  MIC: > 4 µg/mL
P. aeruginosa EN0460; EN0460, combination FdUrd+trimethoprim+uridine, Table 8
  MIC: > 8 µg/mL
P. aeruginosa EN0460; EN0460, combination didanosine+trimethoprim+uridine, Table 10
  MIC: > 8 µg/mL
E. coli EN012
  MIC: 0.064 µg/mL
E. coli EN003
  MIC: 0.064 µg/mL
K. pneumoniae EN0144; EN0144, combination AZT+trimethoprim+uridine, Table 17B
  MIC: 1 µg/mL
K. pneumoniae EN0144; EN0144, combination FdUrd+trimethoprim+uridine, Table 19
  MIC: > 8 µg/mL
K. pneumoniae EN0144; EN0144, combination didanosine+trimethoprim+uridine, Table 20
  MIC: > 8 µg/mL
K. pneumoniae EN0145; EN0145, combination AZT+trimethoprim+uridine, Table 17B
  MIC: 2 µg/mL
K. pneumoniae EN0145; EN0145, combination FdUrd+trimethoprim+uridine, Table 19
  MIC: > 8 µg/mL
K. pneumoniae EN0145; EN0145, combination didanosine+trimethoprim+uridine, Table 20
  MIC: > 8 µg/mL
A. baumannii EN016; EN016, Combination 1 AZT+trimethoprim+uridine
  MIC: > 4 µg/mL
A. baumannii EN016; EN016, Combination 2 AZT+trimethoprim+uridine+thymidine
  MIC: > 4 µg/mL
